Structures can show the parent of a compound that is named as a salt. Activity calls are given as the source filed them. How the calls were made is not given here.
Experiment: Cytotoxicity activity against human HepG2 cells assessed by CellTiter-Glo luminescent cell viability assay.
Assay type: toxicity, cell-based
Set-up: assay stage confirmatory assay, source tissue liver
Conditions: HepG2 cells, read-out: IC50 relative

Compound | CC50
O=C1CCc2ccc(OCCCCN3CCN(c4cccc(Cl)c4Cl)CC3)cc2N1 [ARIPIPRAZOLE] | 25.6 µM (inactive)
CCOc1cc(C)c(CN2C[C@@H](CN(C)C)C[C@H](CO)C2)cc1C(C)C | 4.1 µM (active)
O=C(Nc1ccc(I)cc1)c1ccc(CN2CCOCC2)cc1 | 7.7 µM (inactive)
CCN(CC)c1ccc(/C=C/C2=[N+](C)c3ccccc3C2(C)C)cc1 | 1.2 µM (active)
COC1(C(=O)N2CCO[C@H](c3ccccc3C)C2)CS(=O)(=O)C1 | 8.6 µM (active)
Cc1cc(NC(=O)CSC(C)C)cc2sc(N)nc12 | 13.7 µM (active)
Cc1c2ccncc2c(C)c2c1[nH]c1ccccc12 | 1.4 µM (active)
CN1CCC(COc2cnc(-c3cccc(Cn4nc(-c5cccc(C#N)c5)ccc4=O)c3)nc2)CC1 [TEPOTINIB] | 3.4 µM (active)
CC(C)c1cc(N2CCN(c3ccc(C#N)cc3)CC2)ncn1 | 5.7 µM (active)
O=C1NCCSc2c1sc1ccc(O)cc21 | 1 µM (active)
C[C@@H](C(=O)Nc1c2c(nn1C)CSC2)N1Cc2ccccc2C1=O | 15.8 µM (inactive)
COc1ccc2c(c1)C(C(=O)N(Cc1ccc(N(C)C)cc1)c1ccc(C(C)C)cc1)CCC2 (centres undefined) | 23.2 µM (inactive)
CCN1CCN(c2ccc(Nc3cc(N(C)C(=O)Nc4c(Cl)c(OC)cc(OC)c4Cl)ncn3)cc2)CC1 [INFIGRATINIB] | 3.3 µM (active)
COc1ccc2c(c1)/C(=C/c1cnc[nH]1)C(=O)N2 [SU-9516] | 8.9 µM (active)
C[C@@H]1COCCN1c1cc(=O)n2c(n1)N(Cc1cncc(Cl)c1)[C@H](C(F)(F)F)CC2 | 14.5 µM (inactive)
CCN(CC)CCNC(=O)C1CCN(c2nn3cc(-c4ccc(F)cc4)nc3s2)CC1 | 2 µM (active)
CCN(CC)S(=O)(=O)c1ccc(C(=O)Cn2ncc(Cl)c(Cl)c2=O)cc1 | 2 µM (active)
CCC[C@H](NCc1csc(N(C)C)n1)c1ncccc1Cl | 11.1 µM (active)
COc1cccc2c1C(=O)c1c(O)c3c(c(O)c1C2=O)C[C@@](O)(C(C)=O)C[C@@H]3O[C@H]1C[C@H](N)[C@H](O)[C@H](C)O1 [DAUNORUBICIN HYDROCHLORIDE] | 0.3 µM (active)
CC(C)n1ncc2cc(NC(=O)c3ccc(=O)n(Cc4ccccc4)n3)cnc21 | 9.2 µM (active)
CC1(C)CN2C(CS/C(=N\C3CCCCC3)NC3CCCCC3)=CSC2=N1 | 6 µM (active)
COc1c(Br)cc(Cl)cc1S(=O)(=O)N1CCC[C@H](N)C1 | 16.1 µM (inactive)
COc1ccc2c(c1)CN(C)CC2c1ccc(Cl)c(Cl)c1 (centres undefined) | 12.6 µM (active)

Compound | CC50
CCCOc1cc(OCCCCN(C)C)cc(Oc2cc3c(cc2NS(=O)(=O)c2ccc(OC)c(OC)c2)n(C)c(=O)n3C)c1 | 7.8 µM (active)
C[C@H]1CN(C)c2ccccc2N(Cc2cc3ccccc3c(=O)[nH]2)C1 | 16.9 µM (inactive)
O=C(Nc1cc(Oc2cc(F)c(NC(=O)C3(C(=O)Nc4ccc(F)cc4)CC3)cc2F)ccn1)C1CC1 [ALTIRATINIB] | 0.2 µM (active)
CCc1ccc(NC(=O)c2nc(S(C)(=O)=O)ncc2Br)cc1 | 3 µM (active)
CC(C)(O)CC(=O)NCCn1ccc2ncnc(Nc3ccc(Oc4cccc(C(F)(F)F)c4)c(Cl)c3)c21 [TAK-285] | 10.5 µM (active)
CCOc1cc(/C=C2/C(=O)N(c3ccccc3)N=C2C)cc(Cl)c1OCC(=O)OC | 12.3 µM (active)
COc1cc2nc(-c3cc(F)ccc3O)nc(N[C@@H]3CNC[C@H]3C(C)(C)O)c2cc1OC | 1.6 µM (active)
O=C(Nc1ccc2c(c1)OCCO2)N1CCN(c2ccnc(N3CCCCC3)n2)CC1 | 12.1 µM (active)
COc1cc(/C=C(\C#N)C(=O)Nc2nnc(C(F)(F)F)s2)ccc1OCc1ccc(C(F)(F)F)cc1C(F)(F)F | 12 µM (active)
C[C@@H](NCCCc1cccc(C(F)(F)F)c1)c1cccc2ccccc12 [CINACALCET HYDROCHLORIDE] | 5.1 µM (active)
COc1ccc(-c2noc(=O)n2Cc2ncc(C)c(OC)c2C)cc1OC | 6.2 µM (active)
CC1=C(/C=C/C(C)=C/C=C/C(C)=C/C(=O)Nc2ccc(O)cc2)C(C)(C)CCC1 [FENRETINIDE] | 10.8 µM (active)
COc1ccc(C(=O)Nc2ccncc2)cc1S(=O)(=O)N(C)Cc1ccccc1 | 10.3 µM (active)
Cc1c(Cl)sn(-c2ccc(Cl)cc2)c1=O | 4.4 µM (active)
CCC(C)NC(=O)N1CC(Oc2ccc(-c3noc(-c4ccncc4)n3)cc2)C1 (centres undefined) | 3.8 µM (active)
CCCCCCCCCCCCC/C=C/[C@@H](O)[C@@H](N)CO [SPHINGOSINE] | 11.2 µM (active)
Fc1ccc(CNc2ncnc3ccc(F)cc23)cc1 | 4.3 µM (active)
N#Cc1cc2cc(CN3CCC(Nc4ncnc5sc(CC(F)(F)F)cc45)CC3)ccc2[nH]1 | 2.2 µM (active)
CC(C)Cn1ncc2cc(C(=O)Nc3nc4ccccc4[nH]3)cnc21 | 15.5 µM (inactive)
O=C(NCC(F)(F)CO)c1ccc2noc(-c3ccccc3)c2c1 | 7.2 µM (active)
O=C1c2ccccc2-n2c1nc1ccccc1c2=O [TRYPTANTHRIN] | 4.3 µM (active)
Cc1nc(-c2ccccn2)sc1C(=O)Nc1ccccc1O | 2.8 µM (active)
Cn1cncc1C(=O)N1CCCN(Cc2ccccc2)c2ccccc21 | 11.5 µM (inactive)

Compound | CC50
NC(=O)C(c1ccccc1)(c1ccccc1)[C@@H]1CCN(CCc2ccc3c(c2)CCO3)C1 [DARIFENACIN HYDROBROMIDE] | 11.1 µM (active)
CCC(=O)Nc1ccc(Nc2nc(C)cc(N(CC)CC)n2)cc1 | 4.5 µM (active)
CC(C)Oc1cc(O)c2c(=O)c(-c3ccc(O)cc3)coc2c1 | 15.6 µM (active)
Cc1nn(-c2cccc(Cl)c2)nc1C(=O)NC1CCN(C)CC1 | 9.4 µM (active)
Cc1cc(Nc2nc(N[C@@H](C)c3ccc(F)cc3)c(C#N)cc2F)n[nH]1 | 2.7 µM (active)
CCCCOc1ccc(C(=O)N2CCN(S(=O)(=O)c3ccc4c(c3)OCCCO4)CC2)cc1 | 3.2 µM (inactive)
Cc1ccccc1OCc1n(CC(=O)OC2CC(C)CCC2C(C)C)c2ccccc2[n+]1C (centres undefined) | 4.4 µM (active)
Nc1nc(Nc2ccccc2F)nc2ccccc12 | 8.4 µM (active)
COc1ccc(OCCN2CCN(C(=O)c3ccc(OCc4cn5ccccc5n4)cc3)CC2)cc1 | 4.3 µM (active)
C[C@H]1CCC/C=C\[C@@H]2C[C@H](O)C[C@H]2[C@H](O)/C=C\C(=O)O1 | < 0.1 µM (active)
c1ccc(-n2ccc(CNc3ncnc4c3ncn4C3CC3)n2)cc1 | 9.8 µM (active)
CCn1c(=O)n(CC)c2cc(N3CCCC3)c(NC(=O)c3cccc(OC)c3)cc21 | 20.2 µM (inactive)
Cc1cc(N2CCNCC2)nc2c(C)cccc12 | 11.1 µM (active)
N#Cc1cnc2c(Cl)cc(NCc3cn(CCN4CCCCCC4)nn3)cc2c1Nc1ccc(F)c(Cl)c1 | 11.6 µM (active)
COc1ccc2cc(CN3CCC(n4ccnc4)CC3)ccc2c1 | 11.5 µM (active)
CCCCN(CC)CCCNC(=O)c1cc2c(=O)n(C)c3ccccc3c2n1C | 11.8 µM (active)
CN(Cc1ccc2c(c1)OCCO2)C(=O)[C@H]1CCCN(S(N)(=O)=O)C1 | 50 µM (inactive)
OCCN1CCN(CCCN2c3ccccc3Sc3ccc(C(F)(F)F)cc32)CC1 [FLUPHENAZINE HYDROCHLORIDE] | 3.2 µM (active)
CCOc1nc2cccc(C(=O)OC(C)OC(=O)OC3CCCCC3)c2n1Cc1ccc(-c2ccccc2-c2nnn[nH]2)cc1 (centres undefined) [CANDESARTAN CILEXETIL] | 10.7 µM (active)
Cc1nc(-c2cn3c(n2)-c2ccc(-c4cnn(C(C)(C)C(N)=O)c4)cc2OCC3)n(C(C)C)n1 [TASELISIB] | 2.1 µM (active)
CC[C@H]1CN(c2ccccc2)CCN1c1ccnc(C(C)C)n1 | 10.7 µM (active)
CCCc1cc(C)[nH]c(=O)c1CNC(=O)c1cc(-c2ccnc(N3CCN(C)CC3)c2)cc2c1cnn2C(C)C | 6 µM (active)
COc1ccc(-c2ccc3c(N4CCOC[C@@H]4C)nc(N4CCOC[C@@H]4C)nc3n2)cc1CO [AZD-8055] | 0.1 µM (active)

Compound | CC50
CN(C)C(=O)N[C@H]1CC[C@H](CCN2CCN(c3cccc(Cl)c3Cl)CC2)CC1 [CARIPRAZINE HYDROCHLORIDE] | 14.1 µM (active)
Cc1ccc(C)c(-n2sc3cc(F)ccc3c2=O)c1 | 6.5 µM (active)
CCS(=O)(=O)c1ncc(Cl)c(C(=O)Nc2ccccc2Cl)n1 | 2.5 µM (active)
CCOc1cc(C(Nc2cc(C)ccn2)c2ccc3cccnc3c2O)ccc1OC (centres undefined) | 3.7 µM (active)
CS(=O)(=O)N1CCc2ccc(NC(=O)Nc3cccc(Cl)c3)cc21 | 1.3 µM (active)
Cc1ccc(N2N=C(C(=O)NCCN3CCOCC3)S(=O)(=O)c3cc(F)ccc32)cc1 | 11.2 µM (active)
c1coc(CNc2ncnc3ccccc23)c1 | 9.5 µM (inactive)
CC(C)CC(=O)Nc1[nH]nc2c1CN(C(=O)C1CCN(C)CC1)C2(C)C [PHA-793887] | 1 µM (active)
O=C(NCCN1CCCC1)C1CCN(c2ncccc2-c2nc(-c3ccccc3)no2)CC1 | 7.9 µM (active)
O=C1C(=O)c2cc([N+](=O)[O-])ccc2-c2ccccc21 | 1.5 µM (active)
CCc1cncnc1N1CCN(Cc2nc3cc(C(F)(F)F)ccc3[nH]2)CC1 | 9.5 µM (active)
CNC(=O)c1cc(Oc2ccc(NC(=O)Nc3ccc(Cl)c(C(F)(F)F)c3)c(F)c2)ccn1 [REGORAFENIB] | 1.7 µM (active)
CCN1CCN(CC(O)COc2cc(C)c(Cl)c(C)c2)CC1 (centres undefined) | 12.8 µM (inactive)
NCC1CCC(CNc2nc(NCc3ccccc3OC(F)(F)F)ncc2[N+](=O)[O-])CC1 (centres undefined) | 9.7 µM (active)
O=C(NCCN1CCCC1)C1CCN(c2nn3cc(-c4ccc(F)cc4)nc3s2)CC1 | 2.7 µM (active)
COc1ccc(CNc2nccn(-c3ccc4c(c3)OCO4)c2=O)cc1OC | 9.1 µM (inactive)
O=C(Nc1cnn(-c2ccccn2)c1)c1ccc(O)c(Cl)c1 | 50 µM (inactive)
CCCOc1cc(S(=O)(=O)Nc2cccc(O)c2)ccc1Cl | 12 µM (active)
O=C(CCCN1CCC(O)(c2ccc(Cl)cc2)CC1)c1ccc(F)cc1 [HALOPERIDOL] | 9.6 µM (active)
COc1ccc(-c2noc(N3CCC(C(=O)N4CCN(c5ccccc5OC)CC4)CC3)n2)cc1 | 8 µM (active)

Reference: ChEMBL document CHEMBL5303711, “ECBD screening data for assay EOS300108” (2023)
